Broadly, the EC50 is the midpoint of the concentration-response curve. Read a high EC50 as a need for much substance.

Our source for the EC50 values is US9505762B2, “Purine derivatives as CB2 receptor agonists” (Hoffmann-La Roche Inc., priority 2013, dated 2016).

Where only a bound is given, the exact number is not on record here.

Experiment [1] addresses human CB1 receptors (Homo sapiens (Human), UniProt P21554). The experiment is described as follows: functional cAMP assay, CB1. The class given is cell-based. The following applies: CHO cells expressing human CB1. For orientation: Changes in cAMP serve as a functional read-out for many G protein-coupled receptors.
The target in experiment [2] is human CB2 receptors (Homo sapiens (Human), UniProt P34972). The experiment is described as follows: functional cAMP assay, CB2. The format is cell-based. Particulars: CHO cells expressing human CB2.
Sequence of human CB2 receptors (P34972 whole entry): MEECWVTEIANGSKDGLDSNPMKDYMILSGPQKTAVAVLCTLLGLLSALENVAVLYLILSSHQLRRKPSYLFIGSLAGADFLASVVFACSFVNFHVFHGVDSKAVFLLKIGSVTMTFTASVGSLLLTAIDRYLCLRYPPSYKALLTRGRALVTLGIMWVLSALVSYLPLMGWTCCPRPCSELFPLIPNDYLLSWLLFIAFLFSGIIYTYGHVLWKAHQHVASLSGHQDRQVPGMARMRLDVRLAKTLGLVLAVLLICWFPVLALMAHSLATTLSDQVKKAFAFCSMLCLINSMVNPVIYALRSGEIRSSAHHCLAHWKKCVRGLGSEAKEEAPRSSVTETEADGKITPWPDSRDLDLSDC

Sequence of human CB1 receptors (P21554 whole entry): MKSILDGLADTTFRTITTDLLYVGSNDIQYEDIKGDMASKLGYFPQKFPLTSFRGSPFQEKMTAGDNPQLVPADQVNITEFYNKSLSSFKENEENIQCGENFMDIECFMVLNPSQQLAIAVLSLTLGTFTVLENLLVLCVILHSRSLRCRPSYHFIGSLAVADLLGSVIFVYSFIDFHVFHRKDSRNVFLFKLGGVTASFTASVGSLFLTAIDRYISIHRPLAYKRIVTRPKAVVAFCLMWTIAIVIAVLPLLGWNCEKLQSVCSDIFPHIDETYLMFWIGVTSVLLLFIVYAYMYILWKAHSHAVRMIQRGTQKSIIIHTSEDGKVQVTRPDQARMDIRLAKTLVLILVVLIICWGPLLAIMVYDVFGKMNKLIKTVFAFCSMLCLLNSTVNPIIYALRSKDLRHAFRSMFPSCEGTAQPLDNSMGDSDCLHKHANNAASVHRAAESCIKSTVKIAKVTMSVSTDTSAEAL

Regarding `CC(C)(C)c1nc(N2CC(F)(F)C(F)(F)C2)c2ncn(CCC(F)(F)F)c2n1` [Example 93, 2-tert-butyl-6-(3,3,4,4-tetrafluoropyrrolidin-1-yl)-9-(3,3,3-trifluoropropyl)purine], the 50% effective concentration (EC50) in experiment [1] is > 10000 nM; in experiment [2], 89.8 nM.

Consider `COCCn1cnc2c(N3CC[C@H](O)C3)nc(C(C)(C)C)nc21` [Example 94, (3S)-1-[2-tert-butyl-9-(2-methoxyethyl)purin-6-yl]pyrrolidin-3-ol], for which the results for the EC50 in experiment [1] and in experiment [2] were > 10000 nM and 440 nM, respectively.

As for `Cn1nnnc1Cn1cnc2c(N3CC[C@H](O)C3)nc(C(C)(C)C)nc21` [Example 95, (3S)-1-[2-tert-butyl-9-[(1-methyltetrazol-5-yl)methyl]purin-6-yl]pyrrolidin-3-ol], the EC50 in experiment [1] was > 10000 nM; in experiment [2] it was 363 nM.

For `Cc1nonc1Cn1cnc2c(N3CC[C@H](O)C3)nc(C(C)(C)C)nc21` [Example 96, (3S)-1-[2-tert-butyl-9-[(4-methyl-1,2,5-oxadiazol-3-yl)methyl]purin-6-yl]pyrrolidin-3-ol], the EC50 in experiment [1] is > 10000 nM; in experiment [2], 14.8 nM.

As for `CC(C)(C)c1nc(N2CC[C@H](O)C2)c2ncn(Cc3ccccc3Cl)c2n1` [Example 97, (3S)-1-[2-tert-butyl-9-[(2-chlorophenyl)methyl]purin-6-yl]pyrrolidin-3-ol], the EC50 was > 10000 nM in experiment [1] and 1.8 nM in experiment [2].

For `CC(C)(C)c1nc(N2CC[C@H](O)C2)c2ncn(Cc3c[nH]nc3C(F)(F)F)c2n1` [Example 98, (3S)-1-[2-tert-butyl-9-[[3-(trifluoromethyl)-1H-pyrazol-4-yl]methyl]purin-6-yl]pyrrolidin-3-ol], the EC50 in experiment [1] is > 10000 nM; in experiment [2], 22.3 nM.

As for `CC(C)(C)c1nc(N2CC[C@H](O)C2)c2ncn(CCC(F)(F)F)c2n1` [Example 99, (3S)-1-[2-tert-butyl-9-(3,3,3-trifluoropropyl)purin-6-yl]pyrrolidin-3-ol], the EC50 is > 10000 nM in experiment [1] and 228 nM in experiment [2].

With `CC(C)(C)c1nc(N2CC[C@H](O)C2)c2ncn(Cc3n[nH]cc3C(F)(F)F)c2n1` [Example 100, (3S)-1-[2-tert-butyl-9-[[4-(trifluoromethyl)-1H-pyrazol-3-yl]methyl]purin-6-yl]pyrrolidin-3-ol], the EC50 is > 10000 nM in experiment [1] and 6.6 nM in experiment [2].

Regarding `Cc1noc(Cn2cnc3c(N4CC[C@H](O)C4)nc(C(C)(C)C)nc32)n1` [Example 101, (3S)-1-[2-tert-butyl-9-[(3-methyl-1,2,4-oxadiazol-5-yl)methyl]purin-6-yl]pyrrolidin-3-ol], the EC50 is > 10000 nM in experiment [1] and 370 nM in experiment [2].

`CC1(O)CCN(c2nc(C(C)(C)C)nc3c2ncn3CCC(F)(F)F)C1` (stereo not shown) [Example 102, 1-[2-tert-butyl-9-(3,3,3-trifluoropropyl)purin-6-yl]-3-methylpyrrolidin-3-ol]: the values for the EC50 in experiment [1] and in experiment [2] were > 10000 nM and 135 nM, respectively.

With `CC(=O)N[C@H]1CCN(c2nc(C(C)(C)C)nc3c2ncn3CCC(F)(F)F)C1` [Example 103, N-[(3S)-1-[2-tert-butyl-9-(3,3,3-trifluoropropyl)purin-6-yl]pyrrolidin-3-yl]acetamide], the EC50 in experiment [1] is > 10000 nM; in experiment [2], 211 nM.

For `CC(C)(C)c1nc(N2CCC3(COC3)C2)c2ncn(Cc3ncccc3Cl)c2n1` [Example 104, 7-[2-tert-butyl-9-[(3-chloropyridin-2-yl)methyl]purin-6-yl]-2-oxa-7-azaspiro[3.4]octane], the EC50 in experiment [1] was > 10000 nM; in experiment [2], 160 nM.

With `CC(C)(C)c1nc(N2CC(F)(F)C(F)(F)C2)c2ncn(Cc3ccccc3C(F)(F)F)c2n1` [Example 105, 2-tert-butyl-6-(3,3,4,4-tetrafluoropyrrolidin-1-yl)-9-[[2-(trifluoromethyl)phenyl]methyl]purine], the EC50 is > 10000 nM in experiment [1] and 8.9 nM in experiment [2].

Turning to `CC(C)(C)c1nc(N2CC(F)(F)C(F)(F)C2)c2ncn(Cc3ccccc3S(C)(=O)=O)c2n1` [Example 106, 2-tert-butyl-9-[(2-methylsulfonylphenyl)methyl]-6-(3,3,4,4-tetrafluoropyrrolidin-1-yl)purine], the figures for the EC50 in experiment [1] and in experiment [2] were > 10000 nM and 39.9 nM, respectively.

Take `CC(C)(C)Nc1nc(N2CCC(F)(F)C2)c2ncn(Cc3ccccc3Cl)c2n1` [Example 107, N-tert-butyl-9-[(2-chlorophenyl)methyl]-6-(3,3-difluoropyrrolidin-1-yl)purin-2-amine]: the EC50 was > 10000 nM in experiment [1] and 8.1 nM in experiment [2].

As for `CC(C)(C)Nc1nc(N2CCC(F)(F)C2)c2ncn(Cc3ccccc3C(F)(F)F)c2n1` [Example 108, N-tert-butyl-6-(3,3-difluoropyrrolidin-1-yl)-9-[[2-(trifluoromethyl)phenyl]methyl]purin-2-amine], the EC50 in experiment [1] was > 10000 nM; in experiment [2] it was 6.7 nM.

Turning to `CC(C)(C)Nc1nc(N2CCC(F)(F)C2)c2ncn(CCC(F)(F)F)c2n1` [Example 110, N-tert-butyl-6-(3,3-difluoropyrrolidin-1-yl)-9-(3,3,3-trifluoropropyl)purin-2-amine], the EC50 is > 10000 nM in experiment [1] and 18.3 nM in experiment [2].

As to `Cc1nonc1Cn1cnc2c(N3CCC(F)(F)C3)nc(NC(C)(C)C)nc21` [Example 111, N-tert-butyl-6-(3,3-difluoropyrrolidin-1-yl)-9-[(4-methyl-1,2,5-oxadiazol-3-yl)methyl]purin-2-amine], the EC50 is > 10000 nM in experiment [1] and 14.7 nM in experiment [2].

As to `CC(C)(C)Nc1nc(N2CCC(F)(F)C2)c2ncn(Cc3ncccc3Cl)c2n1` [Example 112, N-tert-butyl-9-[(3-chloropyridin-2-yl)methyl]-6-(3,3-difluoropyrrolidin-1-yl)purin-2-amine], the concentration giving a half-maximal response (EC50) was > 10000 nM in experiment [1] and 7.9 nM in experiment [2].

Take `Cn1nnnc1Cn1cnc2c(N3CCC(F)(F)C3)nc(NC(C)(C)C)nc21` [Example 113, N-tert-butyl-6-(3,3-difluoropyrrolidin-1-yl)-9-[(1-methyltetrazol-5-yl)methyl]purin-2-amine]: the EC50 was > 10000 nM in experiment [1] and 249 nM in experiment [2].

For `CC(C)(C)Nc1nc(N2CCC(F)(F)C2)c2ncn(Cc3ccccc3S(C)(=O)=O)c2n1` [Example 114, N-tert-butyl-6-(3,3-difluoropyrrolidin-1-yl)-9-[(2-methylsulfonylphenyl)methyl]purin-2-amine], the EC50 in experiment [1] is > 10000 nM; in experiment [2], 45.5 nM.

In the case of `Cc1noc(Cn2cnc3c(N4CCC(F)(F)C4)nc(NC(C)(C)C)nc32)n1` [Example 115, N-tert-butyl-6-(3,3-difluoropyrrolidin-1-yl)-9-[(3-methyl-1,2,4-oxadiazol-5-yl)methyl]purin-2-amine], the concentration for a half-maximal effect (EC50) was > 10000 nM in experiment [1] and 195 nM in experiment [2].

Consider `CC(C)(C)Nc1nc(N2CC[C@H](O)C2)c2ncn(Cc3ccccc3Cl)c2n1` [Example 116, (3S)-1-[2-(tert-butylamino)-9-[(2-chlorophenyl)methyl]purin-6-yl]pyrrolidin-3-ol], for which the EC50 was > 10000 nM in experiment [1] and 12.1 nM in experiment [2].

Regarding `CC(C)(C)Nc1nc(N2CC[C@H](O)C2)c2ncn(Cc3ccccc3C(F)(F)F)c2n1` [Example 117, (3S)-1-[2-(tert-butylamino)-9-[[2-(trifluoromethyl)phenyl]methyl]purin-6-yl]pyrrolidin-3-ol], the EC50 is > 10000 nM in experiment [1] and 7.2 nM in experiment [2].

`CC(C)(C)Nc1nc(N2CC[C@H](O)C2)c2ncn(Cc3ncccc3Cl)c2n1` [Example 118, (3S)-1-[2-(tert-butylamino)-9-[(3-chloropyridin-2-yl)methyl]purin-6-yl]pyrrolidin-3-ol]: the EC50 in experiment [1] was > 10000 nM; in experiment [2], 152 nM.

In the case of `Cc1nonc1Cn1cnc2c(N3CC[C@H](O)C3)nc(NC(C)(C)C)nc21` [Example 119, (3S)-1-[2-(tert-butylamino)-9-[(4-methyl-1,2,5-oxadiazol-3-yl)methyl]purin-6-yl]pyrrolidin-3-ol], the figures for the EC50 in experiment [1] and in experiment [2] were > 10000 nM and 149 nM, respectively.

As to `CC1(O)CCN(c2nc(NC(C)(C)C)nc3c2ncn3Cc2ccccc2Cl)C1` (stereo not shown) [Example 120, 1-[2-(tert-butylamino)-9-[(2-chlorophenyl)methyl]purin-6-yl]-3-methylpyrrolidin-3-ol], the EC50 in experiment [1] was > 10000 nM; in experiment [2], 108 nM.

For `CC1(O)CCN(c2nc(NC(C)(C)C)nc3c2ncn3Cc2ccccc2C(F)(F)F)C1` (stereo not shown) [Example 121, 1-[2-(tert-butylamino)-9-[[2-(trifluoromethyl)phenyl]methyl]purin-6-yl]-3-methylpyrrolidin-3-ol], the EC50 was > 10000 nM in experiment [1] and 41.3 nM in experiment [2].

For `Cc1nonc1Cn1cnc2c(N3CCC(C)(O)C3)nc(NC(C)(C)C)nc21` (stereo not shown) [Example 123, 1-[2-(tert-butylamino)-9-[(4-methyl-1,2,5-oxadiazol-3-yl)methyl]purin-6-yl]-3-methylpyrrolidin-3-ol], the EC50 was > 10000 nM in experiment [1] and 563 nM in experiment [2].

Regarding `CC(C)(C)COc1nc(N2CCC(F)(F)C2)c2ncn(Cc3ccccc3Cl)c2n1` [Example 124, 9-[(2-chlorophenyl)methyl]-6-(3,3-difluoropyrrolidin-1-yl)-2-(2,2-dimethylpropoxy) purine], the EC50 in experiment [1] is > 10000 nM; in experiment [2] it was 2.7 nM.

In the case of `CC(C)(C)COc1nc(N2CCC(F)(F)C2)c2ncn(Cc3ccccc3C(F)(F)F)c2n1` [Example 125, 6-(3,3-difluoropyrrolidin-1-yl)-2-(2,2-dimethylpropoxy)-9-[[2-(trifluoromethyl)phenyl]methyl]purine], the values for the EC50 in experiment [1] and in experiment [2] were > 10000 nM and 2.6 nM, respectively.

For `CC(C)(C)COc1nc(N2CCC(F)(F)C2)c2ncn(Cc3ccccc3S(C)(=O)=O)c2n1` [Example 126, 6-(3,3-difluoropyrrolidin-1-yl)-2-(2,2-dimethylpropoxy)-9-[(2-methylsulfonylphenyl)methyl]purine], the EC50 in experiment [1] was > 10000 nM; in experiment [2], 24.5 nM.
